Assay results from ChEMBL document CHEMBL1201862, “PubChem BioAssay data set” (2004).
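Compound exposure: 48 hours, 5 concentrations, 96-well plates. The concentration for 50% growth inhibition is given as GI50.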 The source made the active and inactive calls. No stated cut-off is given here; in the data, active = GI50 up to about 1.1 µM and inactive = higher.

Tests used:
Assay in all cases: inhibition of tumour cell growth, NCI panel, 48 h
HCT-15 = system: HCT-15
COLO 205 = system: COLO 205
A498 = system: A498
DU-145 = system: DU-145
SF-295 = system: SF-295
MCF7 = system: MCF7
Malme-3M = system: Malme-3M
OVCAR-3 = system: OVCAR-3
OVCAR-5 = system: OVCAR-5
SN12C = system: SN12C
NCI-H522 = system: NCI-H522
HCC 2998 = system: HCC 2998
LOX IMVI = system: LOX IMVI
MDA-N = system: MDA-N
BT-549 = system: BT-549
MOLT-4 = system: MOLT-4
SR = system: SR
HOP-92 = system: HOP-92
HOP-62 = system: HOP-62
HCT-116 = system: HCT-116

Compound | GI50 (HCT-15) [µM] | GI50 (COLO 205) | GI50 (A498) | GI50 (DU-145) | GI50 (SF-295) | GI50 (MCF7) | GI50 (Malme-3M) | GI50 (OVCAR-3) | GI50 (OVCAR-5) | GI50 (SN12C) | GI50 (NCI-H522) | GI50 (HCC 2998) | GI50 (LOX IMVI) | GI50 (MDA-N) | GI50 (BT-549) | GI50 (MOLT-4) | GI50 (SR) | GI50 (HOP-92) | GI50 (HOP-62) | GI50 (HCT-116)
O=C(O)/C=C/c1ccc(OS(=O)(=O)O)cc1 | > 100 | > 100 µM (inactive) | > 100 µM (inactive) | > 100 µM (inactive) | > 100 µM (inactive) | > 100 µM (inactive) | > 100 µM (inactive) | > 100 µM (inactive) | > 100 µM (inactive) | > 100 µM (inactive) | > 100 µM (inactive) | > 100 µM (inactive) | > 100 µM (inactive) | > 100 µM (inactive) | > 100 µM (inactive) | > 100 µM (inactive) | > 100 µM (inactive) | > 100 µM (inactive) | > 100 µM (inactive) | > 100 µM (inactive)
Cc1nc(C)c(N2CCN(S(=O)(=O)N(Cc3ccccc3)Cc3ccccc3)CC2)c(O)n1 | > 100 | > 100 µM (inactive) | > 51.9 µM (inactive) | > 59.4 µM (inactive) | 18.7 µM (inactive) | > 43.6 µM (inactive) | > 100 µM (inactive) | 52.8 µM (inactive) | 29.2 µM (inactive) | > 100 µM (inactive) | 4.85 µM (inactive) | > 100 µM (inactive) | 43.5 µM (inactive) | > 100 µM (inactive) | > 57.4 µM (inactive) | > 100 µM (inactive) | > 100 µM (inactive) | 9.73 µM (inactive) | 9.31 µM (inactive) | 53 µM (inactive)
C=C1C(=O)OC2/C=C(\C)C3OC3/C=C(/C(=O)OC)C(OC(C)=O)C(OC(=O)C(C)(O)C(C)OC(C)=O)C12 (stereo not given) | 6.24 | 1.29 µM (inactive) | 3.24 µM (inactive) | > 10 µM (inactive) | 9.2 µM (inactive) | 0.736 µM (active) | 2.14 µM (inactive) | 3.13 µM (inactive) | 5.58 µM (inactive) | 2.67 µM (inactive) | 0.284 µM (active) | 3.83 µM (inactive) | 1.53 µM (inactive) | 2.69 µM (inactive) | 1.04 µM (active) | 0.647 µM (active) | 0.652 µM (active) | 1.9 µM (inactive) | 20.8 µM (inactive) | 1.27 µM (inactive)
COc1cc(C(=O)O)ccc1OS(=O)(=O)O | > 100 | > 100 µM (inactive) | > 10 µM (inactive) | > 100 µM (inactive) | > 100 µM (inactive) | > 100 µM (inactive) | > 100 µM (inactive) | > 100 µM (inactive) | > 100 µM (inactive) | > 100 µM (inactive) | > 100 µM (inactive) | > 100 µM (inactive) | > 100 µM (inactive) | > 100 µM (inactive) | > 100 µM (inactive) | > 100 µM (inactive) | > 100 µM (inactive) | > 100 µM (inactive) | > 100 µM (inactive) | > 100 µM (inactive)
Nc1nc(Cl)cc(NCC2CC(O)(CO)C2)n1 (stereo not given) | > 100 | > 100 µM (inactive) | > 100 µM (inactive) | > 100 µM (inactive) | > 100 µM (inactive) | > 100 µM (inactive) | > 100 µM (inactive) | > 100 µM (inactive) | > 100 µM (inactive) | > 100 µM (inactive) | > 100 µM (inactive) | > 100 µM (inactive) | > 100 µM (inactive) | > 100 µM (inactive) | > 100 µM (inactive) | > 100 µM (inactive) | > 10 µM (inactive) | > 100 µM (inactive) | > 100 µM (inactive) | > 100 µM (inactive)
C[n+]1cccc(/C=C/c2ccc3cccc(O)c3n2)c1 | > 100 | > 100 µM (inactive) | > 100 µM (inactive) | > 100 µM (inactive) | > 100 µM (inactive) | 72.4 µM (inactive) | 19.3 µM (inactive) | 27 µM (inactive) | > 100 µM (inactive) | 32.1 µM (inactive) | 24.8 µM (inactive) | > 100 µM (inactive) | > 100 µM (inactive) | > 100 µM (inactive) | 84.9 µM (inactive) | 54.5 µM (inactive) | > 100 µM (inactive) | > 100 µM (inactive) | 59 µM (inactive) | > 100 µM (inactive)
